Laboratory results reported in patent publication US20240131173A1, “PROTACS WITH TRANSCRIPTION FACTOR TARGETING MOIETIES” (Beth Israel Deaconess Medical Center, Inc., priority 2021, published 2024).
Entries after “also recorded” stand apart in the source; their conditions may differ.

Key:
p65 [1] = biological target: T1, p65 (Homo sapiens, UniProt Q04206); assay: Streptavidin-biotin pulldown / competition assay of NF-κB-ODN with Flag-p65; assay type: binding; details: excess competitor
Experimental: To determine whether NF-κB-ODN binds with NF-κB properly, we also synthesized a biotin-modified version of NF-κB-ODN (hereafter termed as Biotin-NF-κB-ODN, FIGS. 3A-3C).
HEK293T cells that ectopically expressed either Flag-p65 or HAE2F1 were lysed by EBC buffer (50 mM Tris pH 7.5, 120 mM NaCl, 0.5% NP-40) supplemented with protease inhibitors (Pierce) and phosphatase inhibitors (phosphatase inhibitor cocktail set I and II, Calbiochem). The protein concentrations of the lysates were measured using the Bio-Rad protein assay reagent on a Beckman Coulter DU-800 spectrophotometer. The cell lysates (1 mg) were further incubated with biotin-ODN at 4 °C for 3 hours, followed by adding 10 μL of Streptavidin agarose beads (Thermo Fisher) for another 1 hour. The beads were washed 4 times with NETN buffer (100 mM NaCl, 20 mM Tris-Cl, pH 8.0, 0.5 mM EDTA, 0.5% NP-40), boiled in SDS loading buffer and further separated by 10% SDS-PAGE and blotted with individual antibody.
Target sequence in this assay (Q04206 whole entry): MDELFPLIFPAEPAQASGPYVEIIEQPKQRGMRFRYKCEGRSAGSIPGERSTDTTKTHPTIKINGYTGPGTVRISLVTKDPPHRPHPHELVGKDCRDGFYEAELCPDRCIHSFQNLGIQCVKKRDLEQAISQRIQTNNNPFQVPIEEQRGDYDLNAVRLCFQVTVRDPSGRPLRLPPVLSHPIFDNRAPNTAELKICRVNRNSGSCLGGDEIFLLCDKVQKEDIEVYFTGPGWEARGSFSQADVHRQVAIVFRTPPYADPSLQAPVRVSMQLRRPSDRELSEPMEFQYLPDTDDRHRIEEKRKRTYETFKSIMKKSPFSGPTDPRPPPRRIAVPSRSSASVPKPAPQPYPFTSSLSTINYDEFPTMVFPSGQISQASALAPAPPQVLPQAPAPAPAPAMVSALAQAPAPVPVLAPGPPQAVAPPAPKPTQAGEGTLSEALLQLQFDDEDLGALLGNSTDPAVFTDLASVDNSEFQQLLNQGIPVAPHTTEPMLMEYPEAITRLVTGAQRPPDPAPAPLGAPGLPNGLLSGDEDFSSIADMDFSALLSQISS

HeLa cells [2] = assay: Clonal (colony) formation assay; assay type: cell-based, human; details: HeLa cells
Experimental: (§1) For cell growth curve assay, HeLa cells (10, 000/well) in 12-well plate were transfected with individual TF-PROTAC, then the cells were trypsined and the cell number were counted at indicated time. For the clonal formation assay, HeLa cells were transfected with individual TF-PROTAC for 12 hours, followed by further plated into 6-well plate (1,000/well). Three weeks later, the cells were fixed in fixation buffer (acetic acid: methanol=1:7) and stained with 0.4% crystal violet in 20% ethanol. Then clonal number were quantified by Image J software. As various changes can be made in the above-described subject matter without departing from the scope and spirit of the present disclsoure, it is intended that all subject matter contained in the above description, or defined in the appended claims, be interpreted as descriptive and illustrative. Many modifications and variations of the present disclosure are possible in light of the above teachings. Accordingly, the present description is intended to embrace all such alternatives, modifications and variances which fall within the scope of the appended claims.

[3] = biological target: T2, VHL E3 ubiquitin ligase and E2F1 transcription factor (Homo sapiens, UniProt P40337+Q01094+Q14186); assay: GST pulldown assay of VHL E3 ligase complex and E2F1 with TF-PROTAC; assay type: binding; details: in vitro pulldown
T2 construct: made in house; host or cells: E. coli BL21(DE3) for the GST-VHL/Elongin B/C complex; HEK293T lysate for the transfected transcription factor
Experimental: (§2) pGEX-GST-VHL/ElonginB construct was kindly gift from Dr. William Kaelin, Jr. at Dana-Farber Cancer Institute, Harvard Medical School. pGEX-GST-Elongin C plasmid was generated by subcloning Elongin C CDS into the BamHI and Xhol sites of pGEX-4T1-GST vector. The GST-VHL/ElonginB/C complex was purified as described 43. Briefly, BL21(DE3) E. coli was cotransfected with pGEX-GST-VHL/ElonginB and pGEX-GSTElonginC plasmid. Protein expression was induced by 100 μM isopropyl beta-D-thiogalactopyranoside (IPTG, Fisher Scientific) at 18° C.overnight. Then, the bacterial culture was centrifuged and sonicated in PBS buffer with protease inhibitor cocktail. Protein lysates were further purified with glutathione-Sepharose beads (GE17-0756-05) and washed with PBS for 5 times.
(§3) Glutathione-Sepharose beads loaded with GST-VHL E3 ligase complex were incubated at 4° C. with cell lysate derived from HEK293T cells that ectopic transfected with individual transfection factor. After incubation for 3 hours, TF-PROTACs were added into the mixture for another 2 hours, followed by wash with NETN buffer for 3 times. The pulldown products were further separated by 10% SDS-PAGE and blotted for indicated proteins.

[4] = biological target: T3, VHL E3-PROTAC-p65 ternary complex (Homo sapiens, UniProt P40337+Q04206); assay: GST pulldown assay of VHL E3 ligase complex and p65 with TF-PROTAC; assay type: binding; details: GST-VHL complex from E. coli, HEK293T lysate with Flag-p65, in vitro
T3 construct: made in house; host or cells: E. coli BL21(DE3) for the GST-VHL/Elongin B/C complex; HEK293T lysate for Flag-p65
Excerpt: Furthermore, dNF-κB is capable of recruiting VHL E3 ubiquitin ligase to POI, NF-κB. […] However, dNF-κB obtained in current stage could not efficiently promote the degradation of p65 in cells, which prompted further optimization of the length of linker between the VHL ligand and DNA oligomer moieties for achieving efficient destruction of NF-κB in cells.
as §2, §3

p65 [5] = biological target: T1, p65; assay: In vivo ubiquitination assay of p65 (Ni-NTA pulldown); assay type: cell-based; details: HEK293T cells, Flag-p65 24 hours, then dNF-κB 12 hours
Experimental: Denatured in vivo ubiquitination assays were performed as previously described 41. Briefly, HEK293T cells were firstly transfected with Flag-p65 or HA-E2F1 for 24 hours, followed by additional transfection of individual TF-PROTAC for another 12 hours. Before been harvested, HEK293T cells were treated with 30 μM of MG132 for 4 hours. After having been harvested in denatured buffer A (6 M guanidine-HCI, pH 8.0, 0.1 M Na2HPO4/NaH2PO4, and 10 mM imidazole) and sonication for 10 seconds, cell lysis was incubation with Ni-nitrilotriacetic acid (NTA) matrices under rotation for 3 hours at room temperature. The pulldown products were washed sequentially twice in buffer A, twice in buffer A/TI mixture (buffer A, buffer TI=1:3, v/v), and once in buffer TI (25 mM tris-HCl, pH 6.8, and 20 mM imidazole). The ubiquitinated proteins were finally separated by 7% SDS-PAGE and blotted with individual antibody.
Target sequence in this assay (Q04206 whole entry): as above

p65 [6] = biological target: T4, p65 (Homo sapiens, UniProt P19838+Q04206); assay: Western blot of p65 in HeLa cells transfected with TF-PROTAC; assay type: cell-based; details: 12 hours, dNF-κB #1-#18 compared
T4 construct: endogenous in cells; host or cells: HeLa
Experimental: (§4) Human embryonic kidney 293T (HEK293T) and HeLa cells were maintained in Dulbecco's Modified Eagle's Medium (DMEM) containing 10% fetal bovine serum (FBS), 100 Units/mL of penicillin and 100 μg/mL streptomycin. For ectopic expression of transcription factors, Flag-p65 and HA-E2F1 were transfected into HEK293T cells and harvested for lysis 48 hours after transfection. For TF-PROTACs treatment, HeLa cells in 12-well plate were transfected with individual TF-PROTAC for 12 hours, followed by harvest for western blot analysis. […] For depletion of endogenous VHL E3 ligase, two sgRNA for VHL E3 ligase were synthesized and inserted into lenti-CRISPR-V2 construct 40. The sgVHL lentivirus were generated in HEK293T cells as previously described 41-42 for infection of HeLa cells overnight, followed by selection with puromycin for 72 h.
Cells were lysed in EBC buffer supplemented with protease inhibitors cocktail and phosphatase inhibitors, and the protein concentrations were measured as described above. The lysates (40 ug protein) were then resolved by 10% SDS-PAGE at 130 V for 80 min and immunoblotted with indicated antibodies at 4° C. overnight, washed 4 times with Tris-buffered saline with 0.1% Tween-20 (TBST), incubated with secondary antibody for 1 hour at room temperature, and then washed 4 times with TBST buffer. Anti-p65 (#8742, 1:1,000) and E2F1 (#3742, 1:500) antibodies were purchased from Cell Signaling Technologies. Anti-HA antibody (#901513, 1:1,000) was purchased from Biolegend. Anti-Flag (F3165, 1:5,000), anti-vinculin antibody (V-4505, 1:50,000), peroxidase-conjugated anti-mouse secondary antibody (A-4416, 1:3,000) and peroxidase-conjugated anti-rabbit secondary antibody (A-4914, 1:3,000) were purchased from Sigma. All primary antibodies were diluted in 5% bovine serum albumin (BSA) in TBST buffer, and secondary antibodies were diluted in 5% non-fat milk in TBST buffer.

p65 [7] = biological target: T1, p65; assay: as above; assay type: cell-based; parameters: endogenous in cells; host or cells: HeLa; details: 10 uM MG132
Experimental: as §4
Target sequence in this assay (Q04206 whole entry): as above
Target sequence in this assay (P19838 1-433 limits assumed, further chain): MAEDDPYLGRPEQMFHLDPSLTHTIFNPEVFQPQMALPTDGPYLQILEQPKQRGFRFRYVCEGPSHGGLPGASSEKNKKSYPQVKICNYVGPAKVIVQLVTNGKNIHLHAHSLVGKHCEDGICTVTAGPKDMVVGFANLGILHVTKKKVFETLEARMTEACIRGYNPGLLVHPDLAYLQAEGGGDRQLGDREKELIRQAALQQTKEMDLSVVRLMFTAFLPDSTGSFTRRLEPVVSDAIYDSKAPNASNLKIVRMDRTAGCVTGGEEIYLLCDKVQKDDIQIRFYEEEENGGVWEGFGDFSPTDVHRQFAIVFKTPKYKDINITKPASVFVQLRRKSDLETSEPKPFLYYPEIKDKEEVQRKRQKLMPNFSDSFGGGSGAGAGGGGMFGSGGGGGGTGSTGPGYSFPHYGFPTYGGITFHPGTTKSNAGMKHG
Cells were lysed in EBC buffer supplemented with protease inhibitors cocktail and phosphatase inhibitors, and the protein concentrations were measured as described above. The lysates (40 ug protein) were then resolved by 10% SDS-PAGE at 130 V for 80 min and immunoblotted with indicated antibodies at 4° C. overnight, washed 4 times with Tris-buffered saline with 0.1% Tween-20 (TBST), incubated with secondary antibody for 1 hour at room temperature, and then washed 4 times with TBST buffer. […]

HeLa cells [8] = assay: Cell growth curve assay (cell number); assay type: cell-based, human; details: 10 ug/mL
Experimental: as §1

T4 sequence (Q04206 whole entry): as the sequence (Q04206 whole entry) above
T4 sequence (P19838 1-433 limits assumed): as the sequence (P19838 1-433 limits assumed, further chain) above
T3 sequence (P40337 whole entry): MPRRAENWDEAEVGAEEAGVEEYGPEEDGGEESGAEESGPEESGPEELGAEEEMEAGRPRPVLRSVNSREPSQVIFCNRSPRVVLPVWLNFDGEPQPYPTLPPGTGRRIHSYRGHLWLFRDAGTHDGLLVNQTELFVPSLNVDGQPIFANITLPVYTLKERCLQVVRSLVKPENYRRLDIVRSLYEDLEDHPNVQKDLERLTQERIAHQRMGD
T3 sequence (Q15370 whole entry partner): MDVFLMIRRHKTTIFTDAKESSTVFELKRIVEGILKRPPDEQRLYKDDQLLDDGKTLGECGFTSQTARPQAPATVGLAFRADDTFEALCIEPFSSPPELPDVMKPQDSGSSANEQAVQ
T3 sequence (Q15369 whole entry partner): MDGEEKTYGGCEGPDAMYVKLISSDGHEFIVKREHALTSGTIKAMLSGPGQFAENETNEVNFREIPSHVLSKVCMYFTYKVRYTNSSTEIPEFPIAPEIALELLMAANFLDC
T3 sequence (Q04206 whole entry): as the sequence (Q04206 whole entry) above
T2 sequence (P40337 whole entry): as the sequence (P40337 whole entry) above
T2 sequence (Q15370 whole entry partner): as the sequence (Q15370 whole entry partner) above
T2 sequence (Q15369 whole entry partner): as the sequence (Q15369 whole entry partner) above
T2 sequence (Q01094 whole entry): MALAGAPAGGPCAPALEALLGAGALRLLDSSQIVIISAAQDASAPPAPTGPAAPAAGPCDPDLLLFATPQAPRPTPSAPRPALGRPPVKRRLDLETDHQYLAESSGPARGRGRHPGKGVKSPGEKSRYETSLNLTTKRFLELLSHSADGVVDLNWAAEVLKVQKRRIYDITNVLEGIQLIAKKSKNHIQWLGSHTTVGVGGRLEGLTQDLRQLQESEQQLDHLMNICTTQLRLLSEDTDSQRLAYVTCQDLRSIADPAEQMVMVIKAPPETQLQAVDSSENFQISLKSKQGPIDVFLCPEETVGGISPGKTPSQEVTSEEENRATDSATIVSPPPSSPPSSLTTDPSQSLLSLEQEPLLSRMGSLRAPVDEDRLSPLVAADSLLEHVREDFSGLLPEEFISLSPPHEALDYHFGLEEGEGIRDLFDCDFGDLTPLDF
T2 sequence (Q14186 whole entry): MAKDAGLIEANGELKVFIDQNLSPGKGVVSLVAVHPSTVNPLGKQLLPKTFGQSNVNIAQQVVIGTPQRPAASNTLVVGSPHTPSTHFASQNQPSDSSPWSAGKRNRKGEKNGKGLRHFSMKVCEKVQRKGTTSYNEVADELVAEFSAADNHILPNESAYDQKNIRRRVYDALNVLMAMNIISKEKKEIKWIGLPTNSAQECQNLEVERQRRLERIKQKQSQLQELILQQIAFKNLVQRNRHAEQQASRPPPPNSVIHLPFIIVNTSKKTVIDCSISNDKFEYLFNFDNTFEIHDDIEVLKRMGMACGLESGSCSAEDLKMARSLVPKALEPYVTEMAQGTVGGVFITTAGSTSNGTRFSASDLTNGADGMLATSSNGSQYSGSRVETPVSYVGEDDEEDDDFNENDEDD

Row | Substance | competition with Biotin-NF-κB-ODN for binding to p65 (p65 [1]) | VHL E3 ligase-p65 binding (ternary complex) induced by PROTAC [4] | ubiquitination of p65 in cells (p65 [5]) | p65 signal / degradation efficiency in western blot (p65 [6]) | also measured
1 | 5′-TGGGGACTTTCCAGTTTCTGGAAAGTCCCCA-3′ (chemistry not given here) [NF-κB-ODN, reference compound] | competed with Biotin-NF-κB-ODN for the binding with p65 | – | – | – | tumorigenesis ability (colony formation) (HeLa cells [2]): not
2 | N3-NF-κB-ODN: azide modification version of NF-κB-ODN, azide group on the 5′ end through the 5′ amino modifier C6 (TGGGGACTTTCCAGTTTCTGGAAAGTCCCCA; chemistry not fully specified) [Compound N3-NF-κB-ODN] | competed with Biotin-NF-κB-ODN for the binding with p65 | – | – | – | –
3 | dE2F #15 (chain 1 CTAGATTTCCCGCG; chain 2 CTAGCGCGGGAAAT; DNA, backbone and methylation of C not given here; further chemistry not fully specified) | – | – | – | – | binding between VHL E3 ubiquitin ligase and E2F1 recruited by PROTAC [3]: recruited the binding between the VHL E3 ubiquitin ligase and E2F1 transcription factor in vitro
4 | dNF-κB #1 (TGGGGACTTTCCAGTTTCTGGAAAGTCCCCA; DNA, backbone and methylation of C not given here; further chemistry not fully specified) | competed with Biotin NF-κB for binding to RelA/p65 | induced the VHL E3-PROTAC-p65 ternary complex formation | – | – | –
5 | dNF-κB #4 (TGGGGACTTTCCAGTTTCTGGAAAGTCCCCA; VHL ligand conjugate via C4 linker, further chemistry not given here) | – | recruited the binding between the VHL E3 ubiquitin ligase and p65 in vitro | lead to the ubiquitination of p65 in cells | lowest p65 signal | –
6 | dNF-κB #7 (TGGGGACTTTCCAGTTTCTGGAAAGTCCCCA; VHL ligand conjugate via C7 linker, further chemistry not given here) | – | recruited the binding between the VHL E3 ubiquitin ligase and p65 in vitro | lead to the ubiquitination of p65 in cells | lowest p65 signal | –
7 | dNF-κB #15 (TGGGGACTTTCCAGTTTCTGGAAAGTCCCCA; decoy; VHL ligand conjugate via PEG2 linker, further chemistry not given here) | – | recruited the binding between the VHL E3 ubiquitin ligase and p65 in vitro | lead to the ubiquitination of p65 in cells | lowest p65 signal; also recorded: best degradation efficiency | degradation of endogenous p65 under proteasome inhibitor MG132 (p65 [7]): blocked the degradation of endogenous p65; proliferation of HeLa cells (cell number) (HeLa cells [8]): repressed the proliferation of HeLa cells; tumorigenesis ability (colony formation) (HeLa cells [2]): inhibited
8 | dNF-κB #18 (TGGGGACTTTCCAGTTTCTGGAAAGTCCCCA; decoy; VHL ligand conjugate via PEG5 linker, further chemistry not given here) | – | recruited the binding between the VHL E3 ubiquitin ligase and p65 in vitro | lead to the ubiquitination of p65 in cells | lowest p65 signal | –
